Assay [1] addresses D(1A) dopamine receptor (Homo sapiens, UniProt P21728). Put plainly: Displacement of [3H]SCH 23390 from human dopamine D1 receptor expressed in CHO cells. It is filed as cell-based. For orientation: Displacement assays read how much labelled ligand stays bound in the presence of the test substance.
Assay [2] deals with D(2) dopamine receptor (Homo sapiens, UniProt P14416). Put plainly: Displacement of [3H]methylspiperone from human dopamine D2 receptor expressed in CHO cells. It is filed as cell-based.

pKi: −log10 of the molar value.

These results are taken from ChEMBL document CHEMBL1146871, “Hydrazides of clozapine: a new class of D1 dopamine receptor subtype selective antagonists” (Bioorg Med Chem Lett, 2006).

D(1A) dopamine receptor, sequence (P21728 whole entry): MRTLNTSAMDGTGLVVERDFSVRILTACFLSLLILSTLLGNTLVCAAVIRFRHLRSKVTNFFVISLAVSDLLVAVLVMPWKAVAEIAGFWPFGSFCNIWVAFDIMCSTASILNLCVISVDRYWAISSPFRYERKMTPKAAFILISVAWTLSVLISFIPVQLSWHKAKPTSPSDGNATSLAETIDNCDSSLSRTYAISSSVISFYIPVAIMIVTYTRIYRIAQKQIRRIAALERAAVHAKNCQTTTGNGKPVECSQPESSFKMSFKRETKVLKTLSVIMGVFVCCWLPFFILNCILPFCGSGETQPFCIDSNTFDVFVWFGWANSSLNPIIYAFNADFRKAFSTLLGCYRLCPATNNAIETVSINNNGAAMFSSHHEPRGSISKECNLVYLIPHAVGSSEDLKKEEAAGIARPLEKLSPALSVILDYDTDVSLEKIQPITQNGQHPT
D(2) dopamine receptor, sequence (P14416 whole entry): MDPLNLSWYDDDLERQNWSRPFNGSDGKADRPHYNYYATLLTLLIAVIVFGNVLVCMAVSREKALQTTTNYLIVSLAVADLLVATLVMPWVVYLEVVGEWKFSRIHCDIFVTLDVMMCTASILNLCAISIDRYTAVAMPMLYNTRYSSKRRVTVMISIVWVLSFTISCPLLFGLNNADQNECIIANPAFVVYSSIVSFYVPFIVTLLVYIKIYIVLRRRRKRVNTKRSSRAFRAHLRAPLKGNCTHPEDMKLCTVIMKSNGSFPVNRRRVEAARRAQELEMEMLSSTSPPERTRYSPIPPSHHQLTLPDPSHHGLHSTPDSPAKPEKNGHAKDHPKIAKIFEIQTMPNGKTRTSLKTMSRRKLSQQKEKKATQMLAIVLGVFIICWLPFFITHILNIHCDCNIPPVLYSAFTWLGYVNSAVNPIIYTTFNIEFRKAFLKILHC

On to `CN1CCN(C2=Nc3cc(Cl)ccc3N(NC(=O)c3c(N)cccc3C(F)(F)F)c3ccccc32)CC1`, for which the pKi in assay [1] was 8.15; in assay [2], 7.04.

Regarding `CN1CCN(C2=Nc3cc(Cl)ccc3N(NC(=O)c3ccccc3)c3ccccc32)CC1`, the values for the pKi in assay [1] and in assay [2] were 6.80 and 5.94, respectively.

Consider `CN1CCN(C2=Nc3cc(Cl)ccc3N(NC(=O)c3cnn(-c4ccccc4)c3C(F)(F)F)c3ccccc32)CC1`, for which the figures for the negative-log Ki (pKi) in assay [1] and in assay [2] were 7.52 and 5.68, respectively.

Consider `CN1CCN(C2=Nc3cc(Cl)ccc3N(N)c3ccccc32)CC1`, for which the figures for the pKi in assay [1] and in assay [2] were 6.55 and 6.19, respectively.

`CN1CCN(C2=Nc3cc(Cl)ccc3N(NC(=O)c3cccc(Cl)c3)c3ccccc32)CC1`: the pKi in assay [1] is 8.40; in assay [2], 6.74.

Turning to `CN1CCN(C2=Nc3cc(Cl)ccc3N(NC(=O)c3ccc(Cl)cc3)c3ccccc32)CC1`, the pKi in assay [1] is 7.46; in assay [2], 5.03.

Turning to `CCOc1c(C(=O)NN2c3ccc(Cl)cc3N=C(N3CCN(C)CC3)c3ccccc32)sc2ccccc12`, the pKi was 7.55 in assay [1] and 6.71 in assay [2].

Take `CN1CCN(C2=Nc3cc(Cl)ccc3N(NC(=O)c3ccccc3-n3ccnc3)c3ccccc32)CC1`: the pKi in assay [1] was 7.06; in assay [2], 5.52.

For `CCCC(CCC)C(=O)NN1c2ccc(Cl)cc2N=C(N2CCN(C)CC2)c2ccccc21`, the pKi was 7.59 in assay [1] and 5.73 in assay [2].

Take `CN1CCN(C2=Nc3cc(Cl)ccc3N(NC(=O)c3ccccc3F)c3ccccc32)CC1`: the pKi in assay [1] was 7.92; in assay [2], 6.43.

On to `COc1ccc(C(=O)NN2c3ccc(Cl)cc3N=C(N3CCN(C)CC3)c3ccccc32)cc1`, for which the negative-log Ki (pKi) in assay [1] was 7.33; in assay [2] it was 5.52.

With `CN1CCN(C2=Nc3cc(Cl)ccc3N(NC(=O)c3ccon3)c3ccccc32)CC1`, the pKi in assay [1] is 7.66; in assay [2] it was 6.34.

Turning to `CN1CCN(C2=Nc3cc(Cl)ccc3N(NC(=O)/C=C/c3ccccc3)c3ccccc32)CC1`, the values for the negative logarithm of the Ki (pKi) in assay [1] and in assay [2] were 6.99 and 5.80, respectively.

Regarding `CN1CCN(C2=Nc3cc(Cl)ccc3N(NC(=O)c3ccccc3N3CCCCC3)c3ccccc32)CC1`, the values for the negative-log Ki (pKi) in assay [1] and in assay [2] were 8.11 and 6.67, respectively.

As for `CN1CCN(C2=Nc3cc(Cl)ccc3N(NC(=O)c3cccs3)c3ccccc32)CC1`, the pKi in assay [1] was 7.85; in assay [2], 5.83.

On to `CN1CCN(C2=Nc3cc(Cl)ccc3N(NC(=O)c3cccnc3Cl)c3ccccc32)CC1`, for which the negative-log Ki (pKi) in assay [1] is 7.96; in assay [2], 6.20.

`CN1CCN(C2=Nc3cc(Cl)ccc3N(NC(=O)CCc3ccccc3)c3ccccc32)CC1`: the negative logarithm of the Ki (pKi) in assay [1] is 7.10; in assay [2], 6.21.

`CN1CCN(C2=Nc3cc(Cl)ccc3N(NC(=O)c3cnc4ccccc4c3)c3ccccc32)CC1`: the pKi in assay [1] was 7.55.

As to `CCOc1csc(C(=O)NN2c3ccc(Cl)cc3N=C(N3CCN(C)CC3)c3ccccc32)c1`, the pKi in assay [1] was 8.00; in assay [2], 6.74.

In the case of `CN1CCN(C2=Nc3cc(Cl)ccc3N(NC(=O)c3c(Cl)cc(Cl)cc3Cl)c3ccccc32)CC1`, the pKi in assay [1] is 8.40; in assay [2], 6.41.

Consider `CCCC(=O)NN1c2ccc(Cl)cc2N=C(N2CCN(C)CC2)c2ccccc21`, for which the pKi in assay [1] is 6.81; in assay [2] it was 6.40.

Turning to `CN1CCN(C2=Nc3cc(Cl)ccc3N(NC(=O)C3CCC3)c3ccccc32)CC1`, in assay [1], the negative-log Ki (pKi) is 6.82.

Take `CN1CCN(C2=Nc3cc(Cl)ccc3N(NC(=O)c3cccc(I)c3)c3ccccc32)CC1`: the pKi in assay [1] is 8.44; in assay [2], 6.46.

As to `CN1CCN(C2=Nc3cc(Cl)ccc3N(NC(=O)c3ccc4ccccc4n3)c3ccccc32)CC1`, the negative logarithm of the Ki (pKi) is 8.00 in assay [1] and 6.03 in assay [2].

In assay [1], `CN1CCN(C2=Nc3cc(Cl)ccc3N(NC(=O)C(C)(C)C)c3ccccc32)CC1` gave a negative logarithm of the Ki (pKi) of 7.01.

Molecule `CN1CCN(C2=Nc3cc(Cl)ccc3N(NC(=O)c3ccc(C(F)(F)F)cc3)c3ccccc32)CC1` showed a pKi in assay [1] of 7.17.

In assay [1], `CC(=O)NN1c2ccc(Cl)cc2N=C(N2CCN(C)CC2)c2ccccc21` had a negative logarithm of the Ki (pKi) of 6.31.

One may read the pKi as the Ki on a negative log10 scale, so that one unit is a factor of ten. A high value points to a low Ki.
